Literature values, collected in US20090018020A1, “USE OF COMPOUNDS COMPRISING A POLYSACCHARIDE STRUCTURE AS BIOFERTILISER AND PHYTOSANITARY PRODUCTS” (CENTRE NATIONAL DE LA RECHERCHE SCIENTIFIQUE, priority 2002, published 2009).

Settings: literature (Mc Dougall and Fry 1989, 1990)

Row | Substance | auxinic or antiauxinic effect
1 | XLLG | auxinic effect
2 | XXLG | auxinic effect
